The test system of this test is internal mitochondrial proteases. Kind of test: MALDI-TOF-TOF sequence confirmation of MTS cleavage. The settings on record: for Peptide detected: RFP sequence (1-9) VSKGEELIK, position 1-9; for cleavage of the MTS: enriched sample, gel piece, trypsin digestion. More on the design: species or system Kluyveromyces lactis. As to the method: The enriched sample was analysed on a 15% SDS-PAGE gel and stained with Coomassie blue. After de-staining the gel a piece of the SDS-PAGE gel was cut at the position where the RFP was expected. This was washed extensively in water and analysed by MALDI-TOF-TOF analysis after trypsin digestion. […]

Experimental findings from patent EP2369000A1, “Production of peptides and proteins by accumulation in mitochondria” (3T-Science, S.L., priority 2010, dated 2011) are described below.

For the substance “MIS-VII: synthetic mitochondrial targeting sequence (MTS), SEQ ID NO: 2, containing the core RRRA (RLRRRAARSLARSAARR)”, the Peptide detected entry is listed as “VSKGEELIK” and the “cleavage of the MTS” value was “cleavage was correct”.

“MIS-XIII: synthetic mitochondrial targeting sequence (MTS), SEQ ID NO: 3, containing the core RRRA (RAARRRAARR)”: the Peptide detected entry was “VSKGEELIK” and the “cleavage of the MTS” value is on record as “cleavage was correct”.

“MIS-XIV: synthetic mitochondrial targeting sequence (MTS), SEQ ID NO: 4, containing the core RRRA (RARRRARR)”: the Peptide detected result is on record as “VSKGEELIK” and the “cleavage of the MTS” value is reported as “cleavage was correct”.
